Reference: BigSolDB 2.1

Structure (SMILES): O=c1[nH]c2ccccc2n1CCCN1CCC(n2c(=O)[nH]c3cc(Cl)ccc32)CC1
- solubility (mole fraction) (in DMF, 323.15 K): 0.000679
- solubility (mole fraction) (in DMF, 328.15 K): 0.000791
- solubility (mole fraction) (in DMF, 333.15 K): 0.000911
- solubility (mole fraction) (in DMSO, 323.15 K): 0.00142
- solubility (mole fraction) (in DMSO, 328.15 K): 0.00171
- solubility (mole fraction) (in DMSO, 333.15 K): 0.00209
- solubility (mole fraction) (in isopropanol, 293.15 K): 1.85e-05
- solubility (mole fraction) (in isopropanol, 298.15 K): 2.29e-05
- solubility (mole fraction) (in isopropanol, 323.15 K): 6.48e-05
- solubility (mole fraction) (in isopropanol, 328.15 K): 7.7e-05
- solubility (mole fraction) (in isopropanol, 333.15 K): 8.99e-05
- solubility (mole fraction) (in water, 323.15 K): 6.38e-07
- solubility (mole fraction) (in water, 328.15 K): 7.73e-07
- solubility (mole fraction) (in water, 333.15 K): 9.34e-07
